# “And” between values parts separate entries of the source, which are not always exact repeats. Equal entries are not always repeated. Where two headings read alike, the source gives them in different places.
# Experiments:
# [1] = tested on: severe COVID-19 (SARS-CoV-2 infection); format: in vivo
# [2] = tested on: serum cytokines and chemokines (IL-6, MIP-1b, IP-10, M-CSF); assay: Clinical laboratory IL-6 and research serum cytokine and chemokine multiplex analysis before and after maraviroc; format: in vivo, human
# Method: (§1) Clinical laboratory parameters were monitored daily. If patients gave voluntary consent, additional blood for cytokine and chemokine profiling in a research context was obtained and stored at -80° C. until use in the multiplex analysis (Bio-Plex Pro Human Cytokine 48-Plex Screening Panel plus ICAM and VCAM, Biorad, Munich, Germany) as described previously (Halama N, Michel S, Kloor M, et al., Cancer Res 2011;71:5670-7). Median protein concentrations per patient were compared in two groups: before and five or more days after the first day of maraviroc treatment.
# For research cytokine analyses, cytokines which were undetectable in more than 3 samples were excluded. Correction for batch effects from three experiments was performed using the Python packagepycombat (version 0.14), and was validated by analyzing the mixture of samples within UMAP embeddings (McInnes L, Healy J, Melville J. UMAP: Uniform Manifold Approximation and Projection for Dimension Reduction. arXiv 2018). Wilcoxon signed-rank tests were used when comparing cytokine concentrations between groups. Resulting p-values were adjusted for multiple hypothesis testing according to the Benjamini and Hochberg method (Benjamini Y, Hochberg Y., J R Stat Soc B 1995;57:289-300). Kaplan-Meier estimator of survival was employed to visualize cumulative clinical improvement. Hazard ratio and the logrank test were used to compare improvement between patients in different groups using the R packages survival, survminer, and cmprsk. Stated percentages and quartiles include rounded numbers. Statistical analyses were carried out using R-3.5.3, Python-3.6.4, Excel (Microsoft), and SigmaPlot (Systat Software, Inc).
# SARS-CoV-2 pneumonia = assay: Time course of clinical inflammation parameters (CRP, transferrin saturation, IL-6) in serum of COVID-19 pneumonia patients; format: in vivo, human; details: COVID-19 pneumonia patients on standard therapy (piperacillin/tazobactam, caspofungin, hydroxychloroquine), FIG. 1
# Method: Patients with diagnosed SARS-CoV-2 pneumonia received standard therapy with piperacillin/tazobactam, caspofungin, and hydroxychloroquine; where deemed clinically necessary, additionally Maraviroc, a CCR5 inhibitor, was administered as indicated in FIG. 1.
# Patient characteristics were as follows: • Patient A (FIG. 1A): person, no relevant previous disease; • Patient B (FIG. 1B): person; • Patient C (FIG. 1C): person, no relevant previous disease; • Patient D (FIG. 1 D): person, state after chemotherapy for Burkitt lymphoma; under artificial respiration; • Patient E (FIG. 1E): person; • Patient F (FIG. 1 F): person; • Patient G (FIG. 1G): person, under artificial respiration; • Patient H (FIG. 1 H):person; • Patient I (FIG. 1 I): person; • Patient K (FIG. 1 K): person
# [3] = Safety and clinical laboratory parameters during maraviroc treatment of severe COVID-19; format: in vivo, human
# Method: as §1
# Monitoring of clinical laboratory parameters also included, among others, serum levels of creatinine for kidney function, white blood count, lymphocyte count, and interleukin 6 (IL-6) as markers of inflammation and infection.
# SARS-CoV-2 = details: severe COVID-19 cases; preprint; cited from earlier work
# interleukin 6 (IL-6) = details: 5 of 6 patients (range 83 to 8175 pg per milliliter), three days after administration; cited from earlier work
# [4] = patients who received at least one dose before or concomitant to maraviroc
# [5] = serum, subset of 14 patients, p<0.05, not significant after adjustment for multiple testing
# [6] = Patient 43, day 5, decreased on days 6 and 7
molecule,measurement,setting,value
C[C@]12C=CC(=O)C=C1CC[C@@H]1[C@@H]2[C@@H](O)C[C@@]2(C)[C@H]1CC[C@]2(O)C(=O)CO [prednisolone],number of patients who died,[1]; in vivo,1
same,number of patients improved on the ordinal scale from baseline,[1]; [4],3 of 7
same,number of patients with no change on the ordinal scale from baseline,[1]; [4],2
same,number of patients worsened on the ordinal scale from baseline,[1]; [4],2
"Cc1nnc(C(C)C)n1[C@@H]1C[C@H]2CC[C@@H](C1)N2CC[C@H](NC(=O)C1CCC(F)(F)CC1)c1ccccc1 [maraviroc, 4,4-difluoro—N—[(1S)-3-[(1S,5R)-3-(3-methyl-5-propan-2-yl-1,2,4-triazol-4-yl)-8-azabicyclo[3.2.1]octan-8-yl]-1-phenylpropyl]cyclohexane-1-carboxamide]",median time to a substantial clinical improvement from baseline,[1]; IQR 7-16 days,9 days
same,median time to improvement on the ordinal scale from baseline,"[1]; all patients who improved, IQR 5-13 days",8 days
same,patients with improvement on the 6-stage ordinal scale,"[1]; breathing ambient air at baseline, 2 of 2 patients",100%
same,"patients worsened (died), mortality","[1]; invasive mechanical ventilation at baseline, 1 of 11 patients, 40 day observational period",9.1% and 9%
same,patients remained under invasive ventilation,"[1]; invasive ventilation at baseline, 2 of 11 patients",18.2%
same,patients with improvement on the 6-stage ordinal scale,"[1]; invasive ventilation at baseline, 8 of 11 patients",72.7%
same,median time to improvement on the ordinal scale from baseline,"[1]; invasive ventilation at baseline, IQR 5-19 days",14 days
same,patients showing an improvement during the observational period,"[1]; maraviroc patients not treated with HCQ, 14 of 18",77.9%
same,median time to improvement,"[1]; maraviroc patients not treated with HCQ, IQR 3-11 days",7 days
same,patients showing an improvement during the observational period,"[1]; maraviroc patients treated with at least one dose of HCQ, 22 of 29",75.9%
same,median time to improvement,"[1]; maraviroc patients treated with at least one dose of HCQ, IQR 3-13 days",6 days
same,patients with improvement on the 6-stage ordinal scale,"[1]; non-invasive ventilation at baseline, 7 of 11 patients",63.6%
same,median time to improvement on the ordinal scale from baseline,"[1]; not receiving invasive ventilation at baseline, IQR 5-11 days",7 days
same,patients worsened from non-invasive to invasive ventilation,"[1]; one patient of 47, after or during maraviroc treatment",2.1%
same,patients with no change on the 6-stage ordinal scale,"[1]; overall cohort, 4 of 47 patients",8.5%
same,deaths (overall mortality),"[1]; overall cohort, 5 of 47 patients, 40 day time frame, median follow-up 12 days",11%
same,patients worsened on the 6-stage ordinal scale,"[1]; overall cohort, 6 of 47 patients, including deaths",12.8%
same,patients discharged,"[1]; overall cohort, 29 of 47 patients",61.7%
same,patients with substantial clinical improvement (decrease of two stages or more or discharge),"[1]; overall cohort, 34 of 47 patients, day of final data acquisition",72%
same,patients with improvement on the 6-stage ordinal scale,"[1]; overall cohort, 37 of 47 patients, baseline until last day of data acquisition",78.7%
same,clinical outcome of coronavirus infection / severe COVID-19 cases,[1]; overall statement,remarkably positive clinical outcomes
same,patients with improvement on the 6-stage ordinal scale,"[1]; supplemental low-flow oxygen at baseline, 20 of 23 patients",87%
same,patients with no change,"[1]; without invasive mechanical ventilation at baseline, 2 of 36 patients",5.6%
same,patients worsened,"[1]; without invasive mechanical ventilation at baseline, 5 of 36 patients",13.9%
same,patients improved,"[1]; without invasive mechanical ventilation at baseline, 29 of 36 patients",80.6%
same,change in concentration of MIP-1b (CCL4) from before to after treatment,"[2]; serum, subset of 14 patients, after = 5 days or more after baseline, FIG. 5",significant increase
same,change in IP-10 (CXCL10) from before to after treatment,[2]; [5],decrease
same,change in M-CSF (CSF1) from before to after treatment,[2]; [5],decrease
same,median IL-6 level,"[2]; three days after administration, decrease from baseline median 74.7 pg per milliliter, p-value=0.002",37.7 pg per milliliter
same,increase of inflammation markers after administration,SARS-CoV-2 pneumonia,reverted in a very fast manner in all cases
same,novel adverse events,[3]; 47 severe COVID-19 patients,no novel AEs have been observed
same,increase in ALT from baseline,[3]; [6],2.8 fold
same,increase in AST from baseline,[3]; [6],3.6 fold
same,adverse event grade (CTCAE v5.0),"[3]; Patient 43, liver function","grade 2, moderate liver function AE"
same,other changes of clinical laboratory parameters,"[3]; creatinine, white blood count, lymphocyte count, IL-6 among others, monitored daily",no other clinically significant changes were observed
tocilizumab: concomitant investigational treatment,number of patients who died,[1]; [4],3
same,number of patients with no change on the ordinal scale from baseline,[1]; [4],1 of 4
same,number of patients worsened on the ordinal scale from baseline,[1]; [4],3
"leronlimab: humanized IgG4 monoclonal antibody that blocks the chemokine receptor CCR5 on immune cells (antibody, chains of the INN, looked up, V domains shown) VH: EVQLVESGGGLVKPGGSLRLSCAASGYTFSNYWIGWVRQAPGKGLEWIGDIYPGGNYIRNNEKFKDKTTLSADTSKNTAYLQMNSLKTEDTAVYYCGSSFGSNYVFAWFTYWGQGTLVTVSS VL: DIVMTQSPLSLPVTPGEPASISCRSSQRLLSSYGHTYLHWYLQKPGQSPQLLIYEVSNRFSGVPDRFSGSGSGTDFTLKISRVEAEDVGVYYCSQSTHVPLTFGQGTKVEIK",change in plasma viral load,SARS-CoV-2,decrease
same,change of high IL-6 levels,interleukin 6 (IL-6),decreased substantially
